Data taken from US4780476A, “Azoniaspironortropanol esters as asthma therapeutics and broncholytics” (Madaus GmbH & Co., priority 1985, dated 1988).

Test system: T1, isolated tracheal spirals of the guinea pig (Cavia porcellus)
T1 construct: the whole of the trachea is roughly freed beginning from the larynx up to the tracheal bifurcation, removed and transferred; from tissue; host or cells: isolated trachea (spiral strips) of male Pirbright white guinea pigs
Experiment: anticholinergic effectiveness on isolated tracheal spirals (antagonism against acetyl-β-methylcholine chloride)
Conditions: ratio of maximum agonist effect in presence (EAmB) and absence (EAm) of antagonist
Description: A model for this is the measurement of the anticholinergic effectiveness on isolated tracheal spirals of the guinea pig.
The test substance used was 3α-benziloyloxynortropane-8-spiro-1'-pyrrolidinium chloride (trospium chloride; MP 194), ipratropium bromide being used as comparison substance.
There is to be determined the anticholinergic effectiveness of MP 194 in comparison with the reference substance ipratropium bromide on the isolated tracheal spirals of the guinea pig.
3.1.1. animal species: guinea pig
3.1.2. animal strain: Pirbright white
3.3.1. test substance (test antagonist) trospium chloride (MP 194) (M.W. 428)
3.3.2. reference substance (reference antagonist) ipratropium bromide (Atrovent) (M.W. 412.4)
3.3.3.1. acetyl-β-methylcholine chloride (Sigma) (M.W. 195.7)
The guinea pig is stunned by a blow on the neck. Subsequently, the whole of the trachea is roughly freed beginning from the larynx up to the tracheal bifurcation, removed and transferred to tempered (37° C.) and carbogenized tyrode solution. After surrounding connective tissue has been removed as far as possible, the preparation is cut up spirally by means of fine scissors at an angle of about 45° and separated into two equal sized sections. After weighing, both preparations are provided proximally and distally with a silk thread. One thread serves for fixing the preparation by means of a loop to the bottom of the bath and the other is connected via a hook with the transducer above the bath vessel.
Subsequently, the preparations, corresponding to the calibration, are prestressed with about 80 mN and equilibrated from 50-100 minutes. During the equilibration phase, the nutrient solution in the bath vessels is renewed in 15 minute intervals. As soon as the resting muscle tonus of the preparation has stabilized, there takes place the cumulative addition of the agonist, whereby the addition of the next highest concentration first takes place when no further increase of contraction is recognisable (plateau). When the maximum contraction height of the preparation is achieved, the cumulative agonist addition is ended and the preparation is rinsed. After a further equilibration phase (v. supra), the cumulative addition of the agonist is repeated but this time in the presence of the test or reference antagonist.
3.6.1. The perfusion part consists of an L-shaped organ bath in the hollow space of which (longer limb) runs a double glass spiral through which the nutrient solution is passed into the actual bath vessel (28 ml. content; shorter limb). This bath vessel is divided into two chambers which are, however, connected together by two transverse connections. […] The inlet chambers as well as the feeding glass spirals are tempered from the outside to 37° C. by a separate liquid circulation. This tempering takes place with the help of a "Colora" ultra-thermostat type K (Colora Messtechnik GmbH, Dusseldorf, Germany) which serves as thermostat and pump. In order, in case of need, always to have available ready-for-use nutrient solution, above the organ bath is provided a double-walled storage container in which the nutrient solution is also tempered and carbogenised. This is connected via a glass stopcock and a polypropylene tube with double glass spiral in the interior of the organ bath.
3.6.2. The measurement and recording part includes a transducer (Statham-Universal-Zelle UC-2; Hugo Sachs Elektronic KG, Hugstetten, Germany). By means of a hanging-in weight, a force of 40 mN is produced on the transducer which passes as electrical signal via a connecting cable to a bridge amplifier. The amplification is smoothly so regulated that the force provided corresponds to a constant value on the scale or an analogous value on the millimeter paper of the recorder (dependent upon the amplification; see below). After fixing the organ, the preparation is prestressed to the doubled mark, corresponding to 80 mN. […]

T1 sequence (H0W1Z3 1-590): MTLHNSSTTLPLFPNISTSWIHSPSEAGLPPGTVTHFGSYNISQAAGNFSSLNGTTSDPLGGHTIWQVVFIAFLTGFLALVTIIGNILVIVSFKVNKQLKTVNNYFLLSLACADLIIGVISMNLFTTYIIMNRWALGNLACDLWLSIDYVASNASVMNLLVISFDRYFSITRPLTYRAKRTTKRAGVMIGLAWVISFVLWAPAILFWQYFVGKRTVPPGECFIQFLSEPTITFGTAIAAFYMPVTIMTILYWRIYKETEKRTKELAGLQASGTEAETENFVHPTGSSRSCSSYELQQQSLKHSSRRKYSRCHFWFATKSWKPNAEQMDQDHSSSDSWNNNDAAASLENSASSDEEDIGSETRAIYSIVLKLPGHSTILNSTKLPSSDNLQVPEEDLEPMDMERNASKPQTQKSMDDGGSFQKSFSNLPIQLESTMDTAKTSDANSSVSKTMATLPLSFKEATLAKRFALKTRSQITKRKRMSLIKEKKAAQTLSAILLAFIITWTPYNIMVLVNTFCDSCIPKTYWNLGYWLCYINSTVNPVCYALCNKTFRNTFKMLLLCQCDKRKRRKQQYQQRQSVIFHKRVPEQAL

O=C(O[C@H]1C[C@H]2CC[C@@H](C1)[N+]21CCCC1)C(O)(c1ccccc1)c1ccccc1 [trospium chloride, 3α-benziloyloxynortropane-8-spiro-1'-pyrrolidinium chloride]
EAmB/EAm ± s: 1.09 ± 0.22
